Laboratory results reported in patent EP4620949A1, “ACKR3 MODULATORS FOR CARDIOVASCULAR OR ANTIPLATELET THERAPY” (Eberhard Karls Universität Tübingen (Medizinische Fakultät), priority 2024, dated 2025).
pEC50: −log10 of the molar value. Values joined by “and” are separate entries in the source; they are usually repeats but may differ in a detail not shown here. Equal entries are not always repeated.

Biological target: T1, human ACKR3 (Homo sapiens, UniProt P25106)
T1 construct: expressed in transfected cells; host or cells: HEK293T
Assay: ACKR3 β-Arrestin recruitment assay (NanoLuc complementation, NanoBiT) in HEK293T cells
Type: cell-based
Settings: for pEC50: ACKR3, HEK293T cells, average value of three independent experiments; for Efficacy (Emax) vs CXCL12: efficacy of CXCL12 at 300 nM set as 100%, average of three independent experiments
Description: ACKR3 β-Arrestin Recruitment Assay. […] T.; Encell, L. P.; Wood, K. V. Nanoluc complementation reporter optimized for accurate measurement of protein interactions in cells. […] B.; Reynders, N.; Vanderplasschen, A.; Ollert, M.; Bouvier, M.; Szpakowska, M.; Chevigné, A. Proadrenomedullin n-terminal 20 peptides (pamps) are agonists of the chemokine scavenger receptor ACKR3/CXCR7. […] The prepared cells were then treated with compounds at concentrations ranging from 0.3 nM to 100 µM. Induction of β-Arrestin recruitment to receptors was evaluated by measuring bioluminescence with a Mithras LB940 luminometer (Berthold Technologies).
All curves were fitted to data points generated from the mean of at least three independent experiments. Results with values of p < 0.05 were considered statistically significant.

T1 sequence (P25106 whole entry): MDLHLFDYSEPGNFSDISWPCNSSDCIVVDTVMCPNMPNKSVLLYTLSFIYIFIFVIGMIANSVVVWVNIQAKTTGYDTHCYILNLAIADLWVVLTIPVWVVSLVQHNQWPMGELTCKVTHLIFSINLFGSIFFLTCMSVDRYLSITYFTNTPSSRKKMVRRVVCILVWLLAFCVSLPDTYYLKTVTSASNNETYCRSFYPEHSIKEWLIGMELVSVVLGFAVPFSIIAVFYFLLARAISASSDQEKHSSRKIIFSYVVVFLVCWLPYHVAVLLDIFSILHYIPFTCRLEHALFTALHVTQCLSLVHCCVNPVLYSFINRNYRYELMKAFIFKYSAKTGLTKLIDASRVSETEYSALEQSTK
T1 sequence (P49407 whole entry partner): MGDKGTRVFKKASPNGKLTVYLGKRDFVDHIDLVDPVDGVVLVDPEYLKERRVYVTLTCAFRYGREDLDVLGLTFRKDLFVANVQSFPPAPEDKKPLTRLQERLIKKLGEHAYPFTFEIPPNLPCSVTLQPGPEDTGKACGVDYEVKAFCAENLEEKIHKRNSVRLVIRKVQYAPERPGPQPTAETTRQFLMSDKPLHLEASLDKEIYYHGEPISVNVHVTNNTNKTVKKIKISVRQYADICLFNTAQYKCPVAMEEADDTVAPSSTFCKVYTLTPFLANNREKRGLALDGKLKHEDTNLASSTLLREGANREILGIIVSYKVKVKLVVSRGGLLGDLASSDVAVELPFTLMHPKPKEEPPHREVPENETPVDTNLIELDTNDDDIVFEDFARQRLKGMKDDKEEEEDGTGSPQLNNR

Row | Structure (SMILES) | pEC50 | Efficacy (Emax) vs CXCL12 | more potent than 1 (β-Arrestin recruitment potency relative to compound 1)
1 | CN(CCCNC(=O)c1ccc(Br)s1)Cc1ccccc1 [Compound 2, N-(3-(benzyl(methyl)amino)propyl)-5-bromothiophene-2-carboxamide] | 5.79 | – | –
2 | CN(CCCNC(=O)c1cc2ccccc2s1)Cc1ccccc1 [Compound 3, N-(3-(benzyl(methyl)amino)propyl)benzo[b]thiophene-2-carboxamide] | 6.11 | – | –
3 | CN(CCCNC(=O)c1cc2ccccc2[nH]1)Cc1ccccc1 [Compound 4, N-(3-(benzyl(methyl)amino)propyl)-1H-indole-2-carboxamide] | 5.57 | – | –
4 | CN(CCCNC(=O)CSc1ccccc1)Cc1ccccc1 [Compound 7, N-(3-(benzyl(methyl)amino)propyl)-2-(phenylthio)acetamide] | 3.09 | 99% | –
5 | Cc1ccc(-c2ccc(C(=O)NCCCN(C)Cc3ccccc3)s2)cc1 [Compound 9, N-(3-(benzyl(methyl)amino)propyl)-5-(p-tolyl)thiophene-2-carboxamide] | 6.24 | – | –
6 | CN(CCCNC(=O)c1ccc(-c2ccc(C(C)(C)C)cc2)s1)Cc1ccccc1 [Compound 10, N-(3-(benzyl(methyl)amino)propyl)-5-(4-(tert-butyl)phenyl)thiophene-2-carboxamide] | 4.99 | – | –
7 | CN(CCCNC(=O)c1ccc(-c2ccncc2)s1)Cc1ccccc1 [Compound 13, N-(3-(benzyl(methyl)amino)propyl)-5-(pyridin-4-yl)thiophene-2-carboxamide] | 5.76 | – | –
8 | CN(CCCNC(=O)c1ccc(-c2cccc(F)c2)s1)Cc1ccccc1 [Compound 16, N-(3-(benzyl(methyl)amino)propyl)-5-(3-fluorophenyl)thiophene-2-carboxamide] | 6.57 | – | up to 1.5 fold
9 | COc1ccc(CN(C)CCCNC(=O)c2ccc(-c3ccccc3)s2)cc1 [Compound 18, N-(3-((4-methoxybenzyl)(methyl)amino)propyl)-5-phenylthiophene-2-carboxamide] | 6.03 | – | –
10 | CN(CCCNC(=O)c1ccc(-c2ccccc2)s1)Cc1ccc(F)cc1 [Compound 20, N-(3-((4-fluorobenzyl)(methyl)amino)propyl)-5-phenylthiophene-2-carboxamide] | 6.43 | – | –
11 | CC(C)N(CCCNC(=O)c1ccc(-c2ccccc2)s1)Cc1ccccc1 [Compound 24, N-(3-(benzyl(isopropyl)amino)propyl)-5-phenylthiophene-2-carboxamide] | 6.15 | – | –
12 | CN(CCCNC(=O)c1ccc(-c2ccccc2)s1)Cc1cccc(NC(=O)c2ccc(F)cc2)c1 [Compound 36, N-(3-((3-(4-fluorobenzamido)benzyl)(methyl)amino)propyl)-5-phenylthiophene-2-carboxamide] | 5.68 and 5.96 | 86% | –
13 | CC(C)(C)NC(=O)C1CCN(CCCNC(=O)c2ccc(-c3ccccc3)s2)CC1 [Compound 37, N-(tert-butyl)-1-(3-(5-phenylthiophene-2-carboxamido)propyl)piperidine-4-carboxamide] | 5.49 and 5.60 | 102% | –
14 | CC(C)(C)OC(=O)N1CCCC(CNC(=O)c2ccc(-c3ccccc3)s2)C1 (stereo not shown) [Compound 38, tert-butyl 3-((5-phenylthiophene-2-carboxamido)methyl)piperidine-1-carboxylate] | 5.33 | – | –
15 | O=C(Nc1cccc(CN2CCCN(C(=O)c3ccc(-c4ccccc4)s3)CC2)c1)c1ccc(F)cc1 [Compound 41, 4-fluoro-N-(3-((4-(5-phenylthiophene-2-carbonyl)-1,4-diazepan-1-yl)methyl)phenyl)benzamide] | 4.12 and 4.05 | 50% | –
16 | O=C(Nc1cccc(CNC(=O)c2ccc(-c3ccccc3)s2)c1)c1ccc(F)cc1 [Compound 43, N-(3-(4-fluorobenzamido)benzyl)-5-phenylthiophene-2-carboxamide] | 5.47 | – | –
17 | CN1CCCC1CCNC(=O)c1csc(-c2ccccc2)n1 (stereo not shown) [Compound 44, N-(2-(1-methylpyrrolidin-2-yl)ethyl)-2-phenylthiazole-4-carboxamide] | 5.52 | – | –
